Numbers after ± are expanded uncertainties.
Experiments:
[1] = Molar enthalpy of transition or fusion; conditions: Crystal; DSC
[2] = Crystal; DTA

Molar enthalpy of transition or fusion [1]: 6.81 ± 0.191 kcal/mol
Normal melting temperature [2]: 148.6 ± 0.5 °C
SMILES: CC(C)CCC[C@@H](C)[C@H]1CC[C@H]2[C@@H]3CC=C4C[C@@H](O)CC[C@]4(C)[C@H]3CC[C@]12C [.DELTA.5-cholesten-3β-ol]

Source: the NIST ThermoML archive (doi:10.1016/j.fluid.2009.08.016)
